In patent US20080319184A1, “Uses of Dinucleotide Polyphosphate Derivatives” (priority 2005, published 2008):
“Also recorded” adds a separate entry of the source. Like-named read-outs stand apart in the source and are kept apart here.

Tests used:
[1] = system: orthodromically evoked field potentials in CA1 zone of rat hippocampal slices; experiment: Orthodromically induced population spikes (field potentials) in CA1 zone of rat hippocampal slices; format: cell-based; conditions: for inhibition of orthodromically evoked field potentials by known P2X/P2Y agonists: in the same way as AppCH2ppA, FIG. 8, FIG. 9
Method: This study was carried out on 21-day old Wistar rats (WAG/GSto, Moscow, Russia). After rapid decapitation, rat brains were immediately transferred to a Petri dish with chilled (4° C.) solution of the composition 120 mM NaCl, 5 mM KCl, 26 mM NaHCO3, 2 mM MgCl2 and 20 mM glucose. Calcium salts were omitted to reduce possible neuronal damage. The solution was constantly bubbled with 95%O2/5%CO2 gas mixture to maintain pH7.4. Hippocampal slices ([…] thick) were cut manually with a razor blade along the alveolar fibres to preserve the lamellar structure of excitatory connections. During preincubation and experiments, the slices were kept fully submerged in the extracellular solution, pH7.4, comprised of 135 mM NaCl, 5 mM KCl, 26 mM NaHCO3, 1.5 mM CaCl2, 1.5 mM MgCl2, and 20 mM glucose, subjected to continuous bubbling with 95% O2/5% CO2) at 30-31° C. […] (RBI, Natick, Mass., USA) was also included into the extracellular solution during experiments to suppress the inhibitory activity of interneurons. Electrophysiological measurements were recording after at least 2 h of preincubation.
Excitatory postsynaptic currents (EPSCs) were recorded by a standard whole-cell patch clamp technique in the CA1 subfield of the hippocampus in response to stimulation of the Schaffer collateral/commissural pathway. To prevent the spread of electrical activity from area CA3, mini-slices were prepared by making a cut orthogonal to the stratum pyramidale extending to the mossy fibre layer. The intracellular solution, pH 7.2, for patch pipettes was comprised of 100 mM CsF (Merck, Darmstadt, FRG), 40 mM NaH2PO4, 10 mM HEPES-CsOH, 10 mM Tris-HCl. […] Access resistance was monitored throughout the experiments and ranged typically from 6 to 9MΩ. […] Extracellular field potentials were recorded using Ni/Cr electrodes. […] The effects of receptor agonists of antagonists were measured as the mean ratio I/Io where I was the current under the substances action and Io was the current in control saline. […]

[2] = system: orthodromically evoked field potentials in CA1 zone of rat hippocampal slices; conditions: cited from earlier work
[3] = system: excitatory postsynaptic currents in CA1 pyramidal neuron; conditions: cited from earlier work
[4] = system: antidromically induced population spikes in CA1 zone of rat hippocampal slices; experiment: Antidromically induced population spikes in CA1 zone of rat hippocampal slices; format: cell-based
Method: (§1) This study was carried out on 21-day old Wistar rats (WAG/GSto, Moscow, Russia). After rapid decapitation, rat brains were immediately transferred to a Petri dish with chilled (4° C.) solution of the composition 120 mM NaCl, 5 mM KCl, 26 mM NaHCO3, 2 mM MgCl2 and 20 mM glucose. Calcium salts were omitted to reduce possible neuronal damage. The solution was constantly bubbled with 95%O2/5%CO2 gas mixture to maintain pH7.4. Hippocampal slices ([…] thick) were cut manually with a razor blade along the alveolar fibres to preserve the lamellar structure of excitatory connections. […]
(§2) Excitatory postsynaptic currents (EPSCs) were recorded by a standard whole-cell patch clamp technique in the CA1 subfield of the hippocampus in response to stimulation of the Schaffer collateral/commissural pathway. […] Access resistance was monitored throughout the experiments and ranged typically from 6 to 9MΩ. […] Extracellular field potentials were recorded using Ni/Cr electrodes. […] The effects of receptor agonists of antagonists were measured as the mean ratio I/Io where I was the current under the substances action and Io was the current in control saline. […]

[5] = system: excitatory postsynaptic currents in CA1 pyramidal neuron; experiment: Excitatory postsynaptic currents (EPSCs), whole-cell patch clamp in CA1 pyramidal neuron of hippocampal slices; format: cell-based, rat
Method: as §1, §2

[6] = system: NMDA-receptor-mediated channels; experiment: NMDA-activated current in isolated hippocampal pyramidal neurons (whole-cell patch clamp); format: cell-based, rat
Method: NMDA-receptor-activated currents were evoked by 1-2 sec long co-application of aspartate (ASP) (1 mM) and glycine (10 μM). Vh=−100 mV in Mg^2+ free solution.
Wistar rats (12-17-days old) were decapitated under ether anaesthesia and the hippocampus (or cerebellum) was removed. It was cut into slices (300-500 μm) in a solution containing (in mM): 150 NaCl; 5 KCl; 1.25 NaH2PO4; 26 NaHCO3; 1.1 MgCl2; 10 glucose; pH 7.4. Then the slices were incubated for 10 min at 32° C. with 0.5 mg/ml of protease (type XXIII) from Aspergillus oryzae. Single pyramidal cells from CA1 and CA3 stratum pyramidale layers were isolated by vibrodissociation locally in the stratum pyramidale CA3 and CA1 hippocampal pyramidal neurons were identified by their characteristic form and partially preserved dendritic arborisation.
After isolation the cells were usually suitable for recordings for 2-4 h. Throughout the entire procedure the solutions with the slices were continuously saturated with 95% O2 and 5% CO2 gas mixture to maintain pH 7.4. The tested substances were dissolved in DMSO to a stock concentration of 10 mM and kept frozen at −40° C. in daily aliquots. The substances were dissolved in external saline to their final concentration immediately before the experiments.
NMDA-activated currents in isolated neurons were induced by the step application of aspartate (1 mM) and […] in the “concentration clamp” mode (Krishtal et al., 1983), using the computerized “Pharma-Robot” set-up (Pharma-Robot, Kiev). This equipment allows a complete change of saline within 15 ms. Transmembrane currents were recorded using a conventional patch-clamp technique, in the whole-cell configuration. […] The intracellular solution contained (in mM): 70 Tris-PO4; 5 EGTA; 40 TEA-Cl (tetraethylammonium chloride); 30 Tris-Cl; 5 Mg-ATP; 0.5 GTP; pH 7.2. The composition of extracellular solution was (in mM):. 130 NaCl; 3 CaCl2; 5 KCl; 2 MgCl2; 10 HEPES-NaOH; 0.1 μM TTX; pH 7.4. Recording of the currents was performed using patch-clamp amplifiers (DAGAN, USA). Transmembrane currents were filtered at 3 kHz, stored and analysed with an IBM-PC computer using homemade software. NMDA responses were recorded with a 3 min interval. All experiments were performed at room temperature (19-24° C.).

[7] = system: CFA-induced thermal hyperalgesia; experiment: CFA-induced thermal hyperalgesia (Plantar test, paw withdrawal latency); format: in vivo, rat
Method: CFA-Induced Thermal Hyperalgesia. Unilateral inflammation was induced by injecting 100 μl of 50% solution of CFA (Sigma) in physiological saline into the plantar surface of the right hind paw of the rat. The hyperalgesia to thermal stimulation was determined 48 h after CFA injections using the same apparatus as described below for the noxious acute thermal assay.
Thermal sensitivity: On each day following mechanical testing, rats will be placed in a thermal testing apparatus (Plantar test, Ugo Basile, Italy), in which they will be free to move. After 30 min of acclimatization, a constant-power IR stimulus will be focused through the glass base on to the sole of the foot, and the latency for reflex foot withdrawal will be recorded automatically via a photoelectric monitor as previously described Hargreaves et al. 1988.
In each test session, each rat (from 6 tested rats) was tested in three sequential trials at approximately 15 min intervals.

[8] = system: orthodromically evoked field potentials in CA1 zone of rat hippocampal slices; experiment: Orthodromically induced population spikes (field potentials) in CA1 zone of rat hippocampal slices; format: cell-based

Compound: Nc1ncnc2c1ncn2[C@@H]1O[C@H](COP(=O)(O)OP(=O)(O)OP(O)(O)=S)[C@@H](O)[C@H]1O [ATPγS]
- inhibition of orthodromically evoked field potentials by known P2X/P2Y agonists [1]: unable to inhibit

Compound: Nc1ncnc2c1ncn2[C@@H]1O[C@H](COP(=O)(O)OP(=O)(O)OP(=O)(O)OP(=O)(O)OC[C@H]2O[C@@H](n3cnc4c(N)ncnc43)[C@H](O)[C@@H]2O)[C@@H](O)[C@H]1O [Ap4A, diadenosine 5′,5′″-P^1,P^4-tetraphosphate]
- effect on orthodromically evoked field potentials ([2]; literature): inhibition
- effect on excitatory postsynaptic currents ([3]; literature): inhibition

Compound: Nc1ncnc2c1ncn2[C@@H]1O[C@H](COP(=O)(O)OP(=O)(O)CP(=O)(O)OP(=O)(O)OC[C@H]2O[C@@H](n3cnc4c(N)ncnc43)C(O)C2O)C(O)C1O (stereo partly shown) [AppCH2ppA]
- effect on orthodromically evoked field potentials ([1]; 1.9, 3.7 and 7.4 μm applied in steps, all synaptic pathways incl. CA3-CA1 synapses (FIG. 5A)): fast and reversible inhibition
- amplitudes of antidromic spikes ([4]; CA3-CA1 synapses, 1.9-7.4 μm (FIG. 5B)): remained unchanged
- effect on amplitude of antidromically induced population spikes in presence of Ip4I ([4]; Ip4I 20 μM, then 7.4 μM (FIG. 11)): did not cause AppCH2ppA to have an effect
- EPSC decay ([5]; FIG. 5C): unchanged
- amplitudes of EPSCs ([5]; recorded in CA1 pyramidal neuron, 1.9-7.4 μm (FIG. 5C)): remained unchanged
- effect on NMDA-activated current in presence of reactive blue ([6]; P2Y receptor antagonist reactive blue): eliminated
- effect on NMDA-activated current in presence of EDTA ([6]; chelator of bivalent cations EDTA): removed
- amplitude of the NMDA-activated current ([6]; low micromolar concentrations, concentration-dependent manner): increased
- effect on NMDA-activated current after pre-treatment with genestein ([6]; non-specific tyrosine protein kinase inhibitor genestein): abolished
- effect on NMDA-activated current in presence of PPADS ([6]; purine P2 receptor antagonist PPADS): eliminated
- CFA-induced thermal hyperalgesia ([7]; 50 μmol/kg s.c.): attenuates
- thermal hyperalgesia, contra lateral paw ([7]; 50 μmol/kg s.c. (FIG. 18)): attenuates
- paw withdrawal latencies, contra lateral (non-inflamed) paw ([7]; 48 h (FIG. 18)): increases
- paw withdrawal latencies, CFA-injected paw ([7]; 48 h after intraplantar CFA (FIG. 17)): increases
- paw withdrawal latencies for the uninjured paw ([7]; at the doses tested, compared with injured paw): less effectively altered
- thermal hyperalgesia, injured paw ([7]; s.c. administration, 48 h after intraplantar CFA (FIG. 17)): evidently potent; also recorded: fully blocked
- onset of antinociceptive effects in the injured paw after injection ([7]; s.c., injured paw): 3 h
- effect on amplitude of orthodromically induced population spikes in presence of Ip4I ([8]; Ip4I 20 μM, then 7.4 μM (FIG. 10)): did hot alter
- blocking effect on the orthodromic spikes in presence of PPADS ([8]; PPADS 20 μM applied first (FIG. 6)): completely abolished
- reduction by PTIO of the extent of inhibition of orthodromically evoked field potentials ([8]; PTIO 1 mM, then 2.5 μM (FIG. 12)): over 50%
- inhibition of orthodromically evoked field potentials in presence of adenosine deaminase ([8]; adenosine deaminase approx. 2 U/ml, then 7.4 μM): eliminated
- inhibition of orthodromically evoked field potentials in presence of bicuculine ([8]; bicuculine 50 μM, then 7.4 μM): unaffected
- inhibition of orthodromically evoked field potentials in presence of CPT ([8]; cyclopentyl teophylline (CPT) 1 μM, then 7.4 μM (FIG. 7)): eliminated
- inhibition of orthodromically evoked field potentials in presence of hexamethonium ([8]; hexamethonium 100 μM, then 7.4 μM): unaffected
- inhibition of orthodromically evoked field potentials in presence of strychnine ([8]; strychnine 500 nM, then 7.4 μM): unaffected

Compound: Nc1ncnc2c1ncn2[C@@H]1O[C@H](CO)[C@@H](O)[C@H]1O [adenosine]
- effect on orthodromic spikes ([2]; 5 μM, shown previously (literature)): inhibit
- effect on EPSC amplitudes ([3]; shown previously (literature)): diminish

Compound: Nc1ncnc2c1ncn2[C@@H]1O[C@H](COP(=O)(O)CP(=O)(O)OP(=O)(O)O)[C@@H](O)[C@H]1O [α,β-methylene-ATP]
- inhibition of orthodromically evoked field potentials by known P2X/P2Y agonists [1]: unable to inhibit
